What was measured:
HIV strain III B = assay: Protective effect on MT-4 host cells against HIV infection (MTT); type: cell-based; details: stock ultramicroemulsions, 10^-3 to 10^-4, concentration not stated
Protocol: MT4-cells (an immortalized T-cell line highly sensitive to HIV cytopathoge-nic effect, CPE) of a 24 h-old culture were suspended at a concentration of 2×10^5 /ml, divided into 1.2 ml aliquotes in polypropylene tubes, and pelleted by centrifugation. Pellets were either infected with 200 μl of a stock solution of HIV strain III B (Titre: 600 CCID50 /ml), or mock-infected with plain medium, for 90 min. at 37° C, upon which 1 ml of plain medium was added to each tube, restoring initial cell concentration and bringing HIV concentration to 100 CCID50 /ml. [CCID50 /ml=50% cell culture infective dose].
100 μl volumes of the MARIGENOL®-Concentrates to be tested, diluted to aqueous microemulsions 10^-3 and then further diluted from 10^-3 to […] in RPMI 1640 medium, or of plain medium, were added in triplicate to flat-bottom, 96-well microtitre plates. […]
Cultures were incubated at 37° C., in a humified atmosphere of 5% CO2 +95% air. Five days after infection, 100 μl of supernatant were removed from each well, and cell viability was assessed by reduction of a methyl-tetrazolium salt (MTT, Sigma, 25 μl/well of a 5 mg/ml solution) in a 2-h incubation test, followed by solubilization with 100 μl DMSO/well and photometric readout of the optical density at 550 nm. Residual cell viability was expressed as percent difference from HIV CPE-control cultures mean readout, considered as zero.

[1] = tested on: Py6 cells (Virus transformed 3T3 mouse-fibroblasts); assay: Test of cell toxicity / cytotoxicity of MARIGENOL concentrates on Py6 cells (plaque assay, serial dilution); type: cell-based; details: for in dilution active up to 1: (microemulsion ME 1:100): dilution of ME 1:100, given in Mio.
Protocol: A biological assay system using microtiter plates and serial dilutions has been developed. Batches of 10^4 tumour cells per ml were set up in culture medium RPMI 1640 and inactivated with 10% of fetal calf serum (GIBCO); they are spread at a density low enough to enable them to grow during the assay, in non-confluent monolayers. Samples are added after 6 to 24 hours, with 100 μl per row, to which 100 μl of medium are added in the first well. Half of this mixture is withdrawn, transferred into the next well and again treated with 100 μl of medium, etc.
[…] They are then stained and fixed using 0.1% crystal violet (Fluka, Buchs) in a solution of 70% of methanol, 1% of formaldehyde and 29% of water. The samples are evaluated under the microscope, magnification 300×. The greatest cytotoxic dilution is determined. The samples can also be evaluated quantitatively by means of scanning and absorption measurement in a spectrophotometer.
N.B.: On the subject of the eternalized Py6-cells cf.: "Biochemistry", Coordinating Editor Geoffrey L. Zubay, Addison-Wesley Publishing Company, 1983, p.1079.

[2] = Micellar size by dynamic light scattering; type: physicochemical; details: aqueous emulsion 1:100 of 1%-concentrate; DLS
Excerpt: [Measurement conducted with QLS=quasi-elastic, dynamic light scattering; tests performed at the Federal Institute for Technology, Zurich, Institute for Polymers (Prof. Dr. Pier Luigi LUISI and Prof. Dr. Peter SCHURTENBERGER)]. See: "Mode-selective dynamic light scattering; theory versus experimental realization", Thomas Gisler, et al., Applied Optics/Vol. 34, No. 18/Jun. 20, 1995, pp. 3546-3553.
Measurement conducted with aqueous emulsions 1:100 (CMC-marginal value for a homogenous spreading of the surfactants), prepared from the 1%-concentrates. Method: dynamic light scattering (DLS) in 3 angular positions each (60°, 90° and 120°), and with 10 single measurements taken each time. The instrument is a specially equipped "Fiberoptic Spectrometer" of the Institute for Polymers. Description of the method and the instrument, see: "Mode-selective dynamic light scattering: theory versus experimental realization". Thomas Gisler et al., Applied Optics/Vol. 34, No. 18/Jun. 20, 1995.

[3] = tested on: Herpes-Virus (Herpes Simplex, HSV); assay: Antiviral/virucidal efficacy against HSV, plaque reduction in VERO cells; type: cell-based; details: compared to simple medium, 2880 min
Protocol: (§1) The antiviral/virucidal efficacy against HSV of an aqueous microemulsion prepared with appropriate MARIGENOL®-concentrates was assessed on a confluent monolayer culture of VERO cells (i.e. "African green monkey kidney cells"). The host cells were pretreated during 3 h at 4° C. with an inventive microemulsion or with culture medium alone and then infected with HSV at a constant dose of 10^4 plaque forming units (PFU). After virus absorption during 1 h, and subsequent addition of 2% methylcellulose in order to limit virus spreading, cells were cultured in MEM medium+2% foetal calf serum for 48 h, then fixed and stained with 1% crystal violet in methanol. The reduction of viral titre was expressed as percent reduction of plaques of lysis observed in pre-treated cells, compared to controls.
Infection was also detected by IFA at 24 h after inoculation, using a Mab specific for a glycoprotein common to HSV-1/HSV-2 (clone FQ 12, Argene Biosoft, BIOLINE, Torino).
The following test substances were assessed as concentrates in aqueous dilution (starting with a microemulsion 1:100): […]

VERO cells = assay: Cell lysis in VERO cell layers; type: cell-based, African green monkey; details: dilution 1:1'000; plaque reduction table
Protocol: as §1

LEUKEMIA K 562 = assay: Vitality/proliferation test (Tritium), leukemia K 562; type: cell-based, human; details: controls 50'037 cpm
Excerpt: (§2) 4.0 Comparative assays with human tumor cell lines
(§3) VITALITY TEST/1%-MARIGENOL-CONCENTRATE
(§4) 1 × 10^4 cells per well
(§5) Proliferation test (Tritium: 1 μCi/well H^+)

LEUKEMIA DAUDI-LINE = assay: Vitality/proliferation test (Tritium), leukemia Daudi-line; type: cell-based, human; details: controls 23'090 cpm
Excerpt: as §2, §3, §4, §5

[4] = cited from earlier work
[5] = tested on: HIV isolates from patients (strains 21/4 and 4/5); assay: Effect on HIV infectivity, residual HIV titre (direct antiviral efficacy); type: cell-based; details: mean titre of 2 strains, 3 h, +4° C.
Protocol: Aliquote amounts of two HIV isolates from patients (strains 21/4 and 4/5) resuspended in complete RPMI medium at a titre of 300 CCID50 /ml were incubated during 3 hours, +4° C. with MARIGENOL®-concentrate, in the form of an aqueous microemulsion, at concentrations ranging from 10^-2 to 10^-5 in complete medium, as well as with ("empty") carrier concentrate and with medium alone as controls.
After pre-incubation, residual HIV titre was assessed by the CCID50 method (Cell-culture infecting dose 50%). Briefly, serial twofold dilutions were prepared from each of the six virus suspensions, and 200 μl of each dilution were incubated for 90 minutes with MT-4 cell pellets prepared as stated before (see 7.1). At the end of incubation, pellets were brought to initial cell concentration by adding appropriate amounts of complete RPMI medium to each tube, whose content was then distributed into 8 wells of a flat-bottom microtitre plate in 200 μl volumes, each vertical row coresponding to a dilution. After 5 days of incubation, cell viability was assessed by the MTT test as stated above, and the HIV titre was expressed as the reciprocal of that dilution which infects 4 out of 8 wells (50%) in a row. A well was considered infected when its O.D. readout at 550 nm was lower than the average readout of 8 control wells minus 2.8 times the standard error of the mean (lower 95% confidence limit).

human CMV-strain AD169 = assay: Virucidal efficacy on human cytomegalovirus (immunofluorescence); type: cell-based; details: control 15'000
Protocol: The assay was conducted with human, embryonic Lung Fibroblasts as host cells, which were then infected with the human CMV-strain AD169.
The virus strain was incubated during 4 h at +4° C. with varying concentrations of the test substance C16:0 -β-Sitosteryl ester, formulated as a 1%-concentrate and diluted to aqueous microemulsions 10^-3, 10^-4 and 10^-5. It was subsequently inoculated on monolayers of human embryonic lung fibroblasts (which are very susceptible to the CMV-virus). These host cells were grown in shell vials in minimal essential medium (MEM, GIBCO, Life Technologies), containing 10% fetal calf serum. A confluent culture was raised with 120,000 cells per shell-vial. The infection was effected by means of centrifugation during 45 minutes at 1'500 rpm at RT. Thereafter, the injection-suspension was eliminated and 1 ml medium MEM+2% FCS was added (same medium as before). The infected cell culture was maintained during 20 h at 37° C., in a 5%-CO2 -atmosphere. […]
Quantification of the virucidal effect was measured with an immunofluorescence assay. […]
This is followed by 3 washing operations with PBS and a second incubation with the fluorescence-marked antibody IgG goat anti-IgG mouse. […]
The number of IEA-positive cells was recorded. The nuclei which were positive against the CMV-specific antigen were counted by means of the fluorescence microscope, magnification 25×, in aqueous phase.

## CCCCCC(=O)O[C@H]1CC[C@@]2(C)C(=CC[C@H]3[C@@H]4CC[C@H]([C@H](C)CC[C@@H](CC)C(C)C)[C@@]4(C)CC[C@@H]32)C1 [β-Sitosteryl-Caproylate]
HIV strain III B
  protective action on MT-4 cells against HIV: very remarkable results
HIV strain III B; listed as β-Sitosterypl-Caproylate
  protective action on MT-4 cells against HIV: Similar, though less remarkable results

## C=CCCCCCCCCC(=O)Oc1cc(OC(=O)CCCCCCCCC=C)c2c(=O)c(OC(=O)CCCCCCCCC=C)c(-c3ccc(OC(=O)CCCCCCCCC=C)c(OC(=O)CCCCCCCCC=C)c3)oc2c1 [QUERCETIN-PENTA-UNDECENOATE, Quercetin-penta-10-undecenoate]
[1]; 24 h exposure
  in dilution active up to 1: (calculated on active substance content, A.S.): 25.6 Mio.
[1]; 48 h exposure
  in dilution active up to 1: (calculated on active substance content, A.S.): 100 Mio.
  in dilution active up to 1: (microemulsion ME 1:100): 1 Mio.
[1]; 72 h exposure
  in dilution active up to 1: (calculated on active substance content, A.S.): 200 Mio.
  in dilution active up to 1: (microemulsion ME 1:100): 2 Mio.
[2]
  MICELLAR SIZE in nm: 2-3 nm
[3]; dilution 1:10'000
  Percent reduction of plaques in VERO cell monolayers: 48%
[3]; dilution 1:100'000
  Percent reduction of plaques in VERO cell monolayers: 0%
VERO cells
  Cell-Lysis: Cell-Lysis

## CC(=O)O[C@H]1C(=O)[C@@]2(C)[C@H]([C@H](OC(=O)c3ccccc3)[C@]3(O)C[C@H](O)C(C)=C1C3(C)C)[C@]1(OC(C)=O)CO[C@@H]1C[C@@H]2O [BACCATIN III-A.S., Baccatin-III]
[1]; 24 h exposure
  in dilution active up to 1: (calculated on active substance content, A.S.): 12.8 Mio.
[1]; 48 h exposure
  in dilution active up to 1: (calculated on active substance content, A.S.): 12.8 Mio.
[1]; 72 h exposure
  in dilution active up to 1: (calculated on active substance content, A.S.): 100 Mio.
  in dilution active up to 1: (microemulsion ME 1:100): 1 Mio.
LEUKEMIA K 562; 10^-3
  Proliferation test %: 1.3%
  Proliferation test cpm: 680 cpm
LEUKEMIA K 562; 10^-4
  Proliferation test %: 1.5%
  Proliferation test cpm: 757 cpm
LEUKEMIA K 562; 10^-5
  Proliferation test %: 6.3%
LEUKEMIA DAUDI-LINE; 10^-3
  Proliferation test %: 3.0%
  Proliferation test cpm: 708 cpm
LEUKEMIA DAUDI-LINE; 10^-4
  Proliferation test %: 3.4%
  Proliferation test cpm: 795 cpm
LEUKEMIA DAUDI-LINE; 10^-5
  Proliferation test %: 61.4%
[4]
  solubility in water: very low

## CCCCCCCC/C=C\CCCCCCCC(=O)Oc1ccc2c(c1)CC[C@@H]1[C@@H]2CC[C@]2(C)[C@@H](OC(=O)CCCCCCC/C=C\CCCCCCCC)CC[C@@H]12 [β-ESTRADIOL-DI-OLEATE]
[2]
  MICELLAR SIZE in nm: 2-3 nm

## CCCCCCCCCCCCCCCC(=O)O[C@H]1CC[C@@]2(C)C(=CC[C@H]3[C@@H]4CC[C@H]([C@H](C)CC[C@@H](CC)C(C)C)[C@@]4(C)CC[C@@H]32)C1 [β-SITOSTERYL-PALMITATE, 3β-Stigmast-5-en-3-palmitate]
[5]; concentrate 1'000 ppm, active substance 10 ppm
  RESIDUAL HIV TITRE (CCID50): 2 CCID50
[5]; concentrate 10 ppm, active substance 0.1 ppm
  RESIDUAL HIV TITRE (CCID50): 120 CCID50
[5]; concentrate 50 ppm, active substance 0.5 ppm
  RESIDUAL HIV TITRE (CCID50): 76 CCID50
[5]; concentrate 100 ppm, active substance 1 ppm
  RESIDUAL HIV TITRE (CCID50): 50 CCID50
Human CMV-strain AD169; microemulsion 1:1'000 = 1'000 ppm concentrate
  Number of the positive nuclei (anti P-72 antigens): 0
Human CMV-strain AD169; microemulsion 1:10'000 = 100 ppm concentrate
  Number of the positive nuclei (anti P-72 antigens): 2
[3]; dilution 1:10'000
  Percent reduction of plaques in VERO cell monolayers: 24%
[3]; dilution 1:100'000
  Percent reduction of plaques in VERO cell monolayers: 0%
VERO cells
  Cell-Lysis: Cell-Lysis
